Format in all cases: cell-based
For test [1], the target named is T1, TYK2 (Homo sapiens, UniProt P29597). Briefly: TYK2 degradation MSD assay in human PBMC cells. Details: endogenous in cells; host or cells: human PBMC. As to conditions: 4 to 24 hours incubation, read-out: TYK2 MSD DC50 rating in human PBMC. On the procedure:
(§1) Example 3. TYK2 Degradation MSD Assay in EBV-B, OCI-LY10, and Human PBMC Cells
(§2) Degradation of TYK2 in cells was quantitatively measured using Meso Scale Discovery (MSD) technology. EBV-B, OCI-LY10 or human PBMC cells were seeded in 96-well plates with a density of 0.4 million cells per well in 100 μl fresh media. Compounds were then added to the assay plates with a final top concentration of 1 to 10 μM in a 1:3 dilution series with total of 9 doses. The assay plates were then incubated for 4 to 24 hours at 37° C. under 5% CO2. The assay plates were then centrifuged for 5 minutes, and the cell pellets were treated with 100 μl/well RIPA lysis buffer (Boston Bioproducts, BP-115D) with protease and phosphatase inhibitors (Roche, 05892791001 and 04906837001). To prepare MSD assay plates (MSD, L15XA), the plates were coated with the capture antibody (Santa Cruz Biotechnology, SC-5271) in PBS, at 40 μl/well. The plates were then incubated overnight at 4° C., washed 3 times with 150 μl/well TBST buffer (Cell Signaling Technology, 9997S) and blocked with 150 μl/well blocking buffer (MSD, R93BA-4). Cell lysates were then added to MSD assay plates and the plates were incubated at room temperature for 1 hour. The plates were then washed 3 times with 150 μl/well TBST buffer and 25 μl/well primary detection antibody (Cell Signaling Technology, #9312). The assay plates were then incubated at room temperature for 1 hour, washed 3 times with 150 μl/well TBST buffer, and 25 μl/well secondary detection antibody, SULFO-TAG anti-rabbit antibody (MSD, R32AB-1) were added. The assay plates were then incubated at room temperature for 1 hour, washed 3 times with 150 μl/well TBST buffer, and 150 μl/well MSD reading buffer (MSD, R92TC-2) were added. The plates were then analyzed by an MSD reader. The data was analyzed by GraphPad Prism and the dose dependent TYK2 degradation was fit using the four-parameter inhibitor vs. response nonlinear regression. The DC50 data were measured and categorized into different levels in Table H. The compound with DC50 less than or equal to 1 nM is marked as A, with DC50 more than 1 nM and less than or equal to 10 nM is marked as B, with DC50 more than 10 nM and less than or equal to 100 nM is marked as C, and with DC50 more than 100 nM or not available is marked as D.

Test [2] deals with T1, TYK2. Briefly: TYK2 degradation MSD assay in EBV-B cells. More on the design: endogenous in cells; host or cells: EBV-B cells. As to conditions: 4 to 24 hours incubation, read-out: TYK2 MSD DC50 rating in EBV-B. The method, then: as §1, §2
Test [3] deals with T1, TYK2. Briefly: TYK2 degradation MSD assay in OCI-LY10 cells. Details: endogenous in cells; host or cells: EBV-B cells. Conditions: 4 to 24 hours incubation, read-out: TYK2 MSD DC50 rating in OCI-LY10. The method, then: as §1, §2

Where only a bound is given, the exact number is not on record here.

T1 sequence (P29597 whole entry): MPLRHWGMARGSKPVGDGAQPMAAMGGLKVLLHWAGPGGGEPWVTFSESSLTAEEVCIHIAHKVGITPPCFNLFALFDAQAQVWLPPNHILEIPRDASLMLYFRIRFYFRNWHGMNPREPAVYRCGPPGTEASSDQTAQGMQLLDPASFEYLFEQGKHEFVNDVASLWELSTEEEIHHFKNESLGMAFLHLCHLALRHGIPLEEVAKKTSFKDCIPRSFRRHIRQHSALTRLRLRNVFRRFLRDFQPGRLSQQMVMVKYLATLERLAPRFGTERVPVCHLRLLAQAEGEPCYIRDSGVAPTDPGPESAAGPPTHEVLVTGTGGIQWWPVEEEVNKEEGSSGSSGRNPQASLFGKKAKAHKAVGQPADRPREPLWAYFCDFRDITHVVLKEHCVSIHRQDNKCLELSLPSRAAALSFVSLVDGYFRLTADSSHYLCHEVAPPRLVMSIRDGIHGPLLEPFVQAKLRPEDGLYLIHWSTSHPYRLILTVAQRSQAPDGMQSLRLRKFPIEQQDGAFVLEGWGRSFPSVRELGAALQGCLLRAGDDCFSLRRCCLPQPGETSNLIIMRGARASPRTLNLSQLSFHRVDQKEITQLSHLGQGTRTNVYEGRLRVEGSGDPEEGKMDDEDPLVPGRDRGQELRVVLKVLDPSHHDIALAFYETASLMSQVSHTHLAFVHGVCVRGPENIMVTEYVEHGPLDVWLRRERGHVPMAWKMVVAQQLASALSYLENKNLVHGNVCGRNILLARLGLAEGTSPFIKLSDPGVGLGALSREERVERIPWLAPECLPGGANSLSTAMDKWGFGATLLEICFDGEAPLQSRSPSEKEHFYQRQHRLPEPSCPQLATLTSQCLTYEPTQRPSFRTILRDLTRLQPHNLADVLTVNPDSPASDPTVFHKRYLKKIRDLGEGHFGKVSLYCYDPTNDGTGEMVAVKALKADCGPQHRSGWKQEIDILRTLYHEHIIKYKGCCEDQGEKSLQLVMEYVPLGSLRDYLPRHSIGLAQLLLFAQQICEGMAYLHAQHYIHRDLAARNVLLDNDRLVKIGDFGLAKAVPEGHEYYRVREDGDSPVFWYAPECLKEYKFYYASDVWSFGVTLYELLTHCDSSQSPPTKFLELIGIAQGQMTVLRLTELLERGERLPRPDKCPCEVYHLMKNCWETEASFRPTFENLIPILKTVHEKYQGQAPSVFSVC

As to `CNC(=O)c1cnc(Nc2ccc(CN3CCC(CN4CCC(c5ccc6c(c5)n(C)c(=O)n6C5CCC(=O)NC5=O)CC4)CC3)cn2)cc1Nc1cccc(-c2ncc(F)cn2)c1OC` (stereo not drawn) [Example K146], the DC50 on TYK2 [1] is less than 0.001 µM; at TYK2 [2] it was less than 0.001 µM; at TYK2 [3], more than 0.1 µM.

For `CNC(=O)c1cnc(Nc2ccc(CN3CCC(CN(C)c4ccc5c(c4)n(C)c(=O)n5C4CCC(=O)NC4=O)CC3)cn2)cc1Nc1cccc(-c2ncc(F)cn2)c1OC` (stereo not drawn) [Example K147], the values for the DC50 at TYK2 [1], on TYK2 [2] and at TYK2 [3] were 0.001 to 0.01 µM, less than 0.001 µM and more than 0.1 µM, respectively.

`CNC(=O)c1cnc(Nc2ccc(CN(C)CCCOC3CC(c4ccc5c(c4)n(C)c(=O)n5C4CCC(=O)NC4=O)C3)cn2)cc1Nc1cccc(-c2ncc(F)cn2)c1OC` (stereo not drawn) [Example K148]: the DC50 is less than 0.001 µM on TYK2 [1], less than 0.001 µM at TYK2 [2] and more than 0.1 µM at TYK2 [3].

As to `CNC(=O)c1cnc(Nc2ccc(CN3CC4(CCN(c5ccc6c(c5)n(C)c(=O)n6C5CCC(=O)NC5=O)CC4)C3)cn2)cc1Nc1cccc(-c2ncc(F)cn2)c1OC` (stereo not drawn) [Example K149], the DC50 at TYK2 [1] was more than 0.1 µM; on TYK2 [2] it was less than 0.001 µM; at TYK2 [3], more than 0.1 µM.

Regarding `CNC(=O)c1cnc(Nc2ccc(CN3CC4(CCN(c5cccc6c5n(C)c(=O)n6C5CCC(=O)NC5=O)CC4)C3)cn2)cc1Nc1cccc(-c2ncc(F)cn2)c1OC` (stereo not drawn) [Example K150], the figures for the DC50 at TYK2 [1], at TYK2 [2] and at TYK2 [3] were less than 0.001 µM, less than 0.001 µM and more than 0.1 µM, respectively.

As to `CNC(=O)c1cnc(Nc2ccc(CN3CCC(OCC#Cc4cccc5c4n(C)c(=O)n5C4CCC(=O)NC4=O)CC3)cn2)cc1Nc1cccc(-c2ncc(F)cn2)c1OC` (stereo not drawn) [Example K151], the DC50 on TYK2 [1] is more than 0.1 µM; on TYK2 [2] it was less than 0.001 µM; on TYK2 [3] it was more than 0.1 µM.

In the case of `CCNC(=O)c1cnc(Nc2ccc(C(=O)N(C)C3CCN(c4ccc5c(c4)n(C)c(=O)n5C4CCC(=O)NC4=O)CC3)cn2)cc1Nc1cccc(-c2ncc(F)cn2)c1OC` (stereo not drawn) [Example K152], the results for the DC50 at TYK2 [1], at TYK2 [2] and on TYK2 [3] were more than 0.1 µM, 0.001 to 0.01 µM and more than 0.1 µM, respectively.

As to `CNC(=O)c1cnc(Nc2ccc(CN(C)C3CN(c4ccc5c(c4)n(C)c(=O)n5C4CCC(=O)NC4=O)C3)cn2)cc1Nc1cccc(-c2ncc(F)cn2)c1OC` (stereo not drawn) [Example K153], the DC50 at TYK2 [1] was less than 0.001 µM; on TYK2 [2], more than 0.1 µM; at TYK2 [3], less than 0.001 µM.

As for `CNC(=O)c1cnc(Nc2ccc(CN(C)C3CN(c4cccc5c4n(C)c(=O)n5C4CCC(=O)NC4=O)C3)cn2)cc1Nc1cccc(-c2ncc(F)cn2)c1OC` (stereo not drawn) [Example K154], the DC50 at TYK2 [1] is less than 0.001 µM; at TYK2 [2] it was more than 0.1 µM; at TYK2 [3], less than 0.001 µM.

As to `CNC(=O)c1cnc(Nc2ccc(CN(C)C3CCN(c4ccc5c(c4)n(C)c(=O)n5C4CCC(=O)NC4=O)CC3)cn2)cc1Nc1cccc(-c2ncc(F)cn2)c1OC` (stereo not drawn) [Example K155], the figures for the DC50 on TYK2 [1], at TYK2 [2] and at TYK2 [3] were less than 0.001 µM, less than 0.001 µM and more than 0.1 µM, respectively.

For `CNC(=O)c1cnc(Nc2ccc(CN3CCCC(c4cccc5c4n(C)c(=O)n5C4CCC(=O)NC4=O)C3)cn2)cc1Nc1cccc(-c2ncc(F)cn2)c1OC` (stereo not drawn) [Example K156], the 50% degradation concentration (DC50) on TYK2 [1], at TYK2 [2] and on TYK2 [3] was more than 0.1 µM each time.

As to `CNC(=O)c1cnc(Nc2ccc(CN(C)CCCOC3CCN(c4ccc5c(c4)n(C)c(=O)n5C4CCC(=O)NC4=O)CC3)cn2)cc1Nc1cccc(-c2ncc(F)cn2)c1OC` (stereo not drawn) [Example K157], the DC50 at TYK2 [1] is more than 0.1 µM; at TYK2 [2], less than 0.001 µM; on TYK2 [3], more than 0.1 µM.

On to `CNC(=O)c1cnc(Nc2ccc(CN(C)CCCOC3CC(c4cccc5c4n(C)c(=O)n5C4CCC(=O)NC4=O)C3)cn2)cc1Nc1cccc(-c2ncc(F)cn2)c1OC` (stereo not drawn) [Example K158], for which the DC50 at TYK2 [1] was more than 0.1 µM; on TYK2 [2], less than 0.001 µM; at TYK2 [3] it was more than 0.1 µM.

Regarding `CNC(=O)c1cnc(Nc2ccc(CN3CCC(OC4CC(c5ccc6c(c5)n(C)c(=O)n6C5CCC(=O)NC5=O)C4)CC3)cn2)cc1Nc1cccc(-c2ncc(F)cn2)c1OC` (stereo not drawn) [Example K159], the DC50 was more than 0.1 µM at TYK2 [1], less than 0.001 µM at TYK2 [2] and more than 0.1 µM on TYK2 [3].

(Values after patent US20250051338A1, “TYK2 DEGRADERS AND USES THEREOF” (Kymera Therapeutics, Inc., priority 2021, published 2025).)
